Consider 4 compounds from ChEMBL document CHEMBL5550200, “Back-Pocket Optimization of 2-Aminopyrimidine-Based Macrocycles Leads to Potent EPHA2/GAK Kinase Inhibitors” (J Med Chem, 2024).

The structures appear in SMILES notation. Some results are limits rather than exact numbers.

The target of one assay is Ephrin type-A receptor 4 (Homo sapiens, UniProt P54764). Put plainly: Induction of stabilization of recombinant EPHA4 (unknown origin) assessed as change in melting temperature by differential scanning fluorimetry assay. In general terms: Differential scanning fluorimetry follows unfolding on heating by fluorescence.
The target of assay [1] is T1, Ephrin type-B receptor 3 (Homo sapiens) (UniProt P54753).
T1 sequence (whole entry): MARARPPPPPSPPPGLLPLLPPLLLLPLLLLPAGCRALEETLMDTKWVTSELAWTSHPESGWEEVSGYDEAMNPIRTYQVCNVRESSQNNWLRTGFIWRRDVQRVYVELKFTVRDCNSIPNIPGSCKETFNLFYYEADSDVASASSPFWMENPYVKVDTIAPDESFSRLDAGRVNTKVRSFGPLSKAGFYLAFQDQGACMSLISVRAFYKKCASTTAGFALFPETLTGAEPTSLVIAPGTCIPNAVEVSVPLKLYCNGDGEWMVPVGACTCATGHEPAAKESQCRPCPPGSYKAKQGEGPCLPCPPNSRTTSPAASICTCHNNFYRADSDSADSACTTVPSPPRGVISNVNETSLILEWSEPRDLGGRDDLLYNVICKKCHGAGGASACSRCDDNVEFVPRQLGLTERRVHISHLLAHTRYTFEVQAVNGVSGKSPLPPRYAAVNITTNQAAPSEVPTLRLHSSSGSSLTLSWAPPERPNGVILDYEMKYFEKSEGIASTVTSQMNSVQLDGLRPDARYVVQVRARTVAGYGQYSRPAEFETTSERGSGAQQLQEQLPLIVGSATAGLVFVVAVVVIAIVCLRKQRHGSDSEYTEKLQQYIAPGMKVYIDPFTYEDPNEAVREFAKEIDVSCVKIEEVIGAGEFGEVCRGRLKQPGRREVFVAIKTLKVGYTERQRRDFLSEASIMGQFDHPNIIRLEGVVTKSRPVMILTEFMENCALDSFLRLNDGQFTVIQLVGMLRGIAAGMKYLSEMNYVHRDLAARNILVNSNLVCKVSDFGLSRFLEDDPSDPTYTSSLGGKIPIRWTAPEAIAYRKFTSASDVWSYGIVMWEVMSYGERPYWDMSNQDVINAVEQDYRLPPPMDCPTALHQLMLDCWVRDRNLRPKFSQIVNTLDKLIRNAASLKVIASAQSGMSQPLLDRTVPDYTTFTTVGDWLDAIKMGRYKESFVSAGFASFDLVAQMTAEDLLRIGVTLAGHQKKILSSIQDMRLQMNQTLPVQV
Put plainly: Induction of stabilization of recombinant EPHB3 (unknown origin) assessed as change in melting temperature by differential scanning fluorimetry assay.

The target of assay [2] is Fibroblast growth factor receptor 1 (Homo sapiens, UniProt P11362).
Chain of Fibroblast growth factor receptor 1 (P11362 22-822 limits assumed): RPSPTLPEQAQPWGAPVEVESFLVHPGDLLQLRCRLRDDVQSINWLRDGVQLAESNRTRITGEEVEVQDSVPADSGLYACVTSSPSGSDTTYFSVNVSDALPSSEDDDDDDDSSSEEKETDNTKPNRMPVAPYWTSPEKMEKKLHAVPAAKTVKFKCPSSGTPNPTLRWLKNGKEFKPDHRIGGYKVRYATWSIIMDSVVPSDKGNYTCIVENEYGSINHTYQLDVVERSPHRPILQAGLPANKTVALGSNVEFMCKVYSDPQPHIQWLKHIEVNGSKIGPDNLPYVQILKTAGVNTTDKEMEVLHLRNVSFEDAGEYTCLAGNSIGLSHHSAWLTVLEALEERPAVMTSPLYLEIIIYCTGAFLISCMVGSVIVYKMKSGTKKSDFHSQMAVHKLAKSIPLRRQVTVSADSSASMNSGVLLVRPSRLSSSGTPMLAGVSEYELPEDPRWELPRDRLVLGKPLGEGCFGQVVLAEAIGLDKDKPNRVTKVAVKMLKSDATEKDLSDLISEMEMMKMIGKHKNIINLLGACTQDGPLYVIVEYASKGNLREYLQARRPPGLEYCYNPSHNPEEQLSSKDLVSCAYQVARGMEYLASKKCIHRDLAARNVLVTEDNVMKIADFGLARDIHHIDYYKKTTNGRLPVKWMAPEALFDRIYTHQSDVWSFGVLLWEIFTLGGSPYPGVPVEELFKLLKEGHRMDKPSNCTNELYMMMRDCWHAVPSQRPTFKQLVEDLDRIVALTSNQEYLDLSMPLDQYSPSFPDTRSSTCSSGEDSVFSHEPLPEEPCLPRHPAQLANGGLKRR
Description: Induction of stabilization of recombinant FGFR1 (unknown origin) assessed as change in melting temperature by differential scanning fluorimetry assay
The next assay has as its system Huh-7. Put plainly: Cytotoxicity against human Huh-7 cells assessed as reduction in cell viability by alamar blue reagent based analysis. Type of assay: functional. On the technique in general: The colour change of resazurin is a common sign of viable cells or microbes.
For the next assay, the system named is dengue virus type 2. Put plainly: Antiviral activity against DENV-2 New Guinea C infected in human Huh-7 cells assessed as reduction in virus induced cytopathic effect preincubated with cells for 1 hr followed by viral infection and measured after 45 to 48 hrs by luciferase assay. The following applies: for EC90: time 45-48 hrs. It is filed as functional, organism-based. Background: Cytopathic effects are the visible damage that an infection or toxin causes in cultured cells.

Assay [3] deals with Fibroblast growth factor receptor 2 (Homo sapiens) (UniProt P21802).
Chain of Fibroblast growth factor receptor 2 (Homo sapiens) (P21802 22-821 limits assumed): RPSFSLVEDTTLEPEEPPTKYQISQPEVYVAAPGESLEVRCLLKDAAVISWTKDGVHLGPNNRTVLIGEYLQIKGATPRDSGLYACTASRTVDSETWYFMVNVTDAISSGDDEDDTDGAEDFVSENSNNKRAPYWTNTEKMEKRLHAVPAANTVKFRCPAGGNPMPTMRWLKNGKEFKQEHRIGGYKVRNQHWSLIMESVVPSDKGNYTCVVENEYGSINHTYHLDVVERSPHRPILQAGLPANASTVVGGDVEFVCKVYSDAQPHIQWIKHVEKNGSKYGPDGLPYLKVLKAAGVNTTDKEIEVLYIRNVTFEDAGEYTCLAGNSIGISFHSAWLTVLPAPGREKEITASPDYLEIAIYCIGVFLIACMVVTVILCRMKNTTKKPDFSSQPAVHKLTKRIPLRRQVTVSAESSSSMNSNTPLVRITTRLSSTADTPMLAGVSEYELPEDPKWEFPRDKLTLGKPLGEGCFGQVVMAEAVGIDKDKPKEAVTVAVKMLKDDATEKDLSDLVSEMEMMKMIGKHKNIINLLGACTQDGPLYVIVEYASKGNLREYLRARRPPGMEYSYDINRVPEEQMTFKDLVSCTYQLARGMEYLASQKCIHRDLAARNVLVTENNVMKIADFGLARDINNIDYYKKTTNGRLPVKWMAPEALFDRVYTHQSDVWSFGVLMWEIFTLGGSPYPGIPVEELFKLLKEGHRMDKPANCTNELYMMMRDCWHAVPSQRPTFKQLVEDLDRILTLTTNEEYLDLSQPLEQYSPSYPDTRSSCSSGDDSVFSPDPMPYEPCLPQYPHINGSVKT
Description: Induction of stabilization of recombinant FGFR2 (unknown origin) assessed as change in melting temperature by differential scanning fluorimetry assay
For assay [4], the target named is T2, Ephrin type-B receptor 1 (Homo sapiens) (UniProt P54762).
T2 sequence (whole entry): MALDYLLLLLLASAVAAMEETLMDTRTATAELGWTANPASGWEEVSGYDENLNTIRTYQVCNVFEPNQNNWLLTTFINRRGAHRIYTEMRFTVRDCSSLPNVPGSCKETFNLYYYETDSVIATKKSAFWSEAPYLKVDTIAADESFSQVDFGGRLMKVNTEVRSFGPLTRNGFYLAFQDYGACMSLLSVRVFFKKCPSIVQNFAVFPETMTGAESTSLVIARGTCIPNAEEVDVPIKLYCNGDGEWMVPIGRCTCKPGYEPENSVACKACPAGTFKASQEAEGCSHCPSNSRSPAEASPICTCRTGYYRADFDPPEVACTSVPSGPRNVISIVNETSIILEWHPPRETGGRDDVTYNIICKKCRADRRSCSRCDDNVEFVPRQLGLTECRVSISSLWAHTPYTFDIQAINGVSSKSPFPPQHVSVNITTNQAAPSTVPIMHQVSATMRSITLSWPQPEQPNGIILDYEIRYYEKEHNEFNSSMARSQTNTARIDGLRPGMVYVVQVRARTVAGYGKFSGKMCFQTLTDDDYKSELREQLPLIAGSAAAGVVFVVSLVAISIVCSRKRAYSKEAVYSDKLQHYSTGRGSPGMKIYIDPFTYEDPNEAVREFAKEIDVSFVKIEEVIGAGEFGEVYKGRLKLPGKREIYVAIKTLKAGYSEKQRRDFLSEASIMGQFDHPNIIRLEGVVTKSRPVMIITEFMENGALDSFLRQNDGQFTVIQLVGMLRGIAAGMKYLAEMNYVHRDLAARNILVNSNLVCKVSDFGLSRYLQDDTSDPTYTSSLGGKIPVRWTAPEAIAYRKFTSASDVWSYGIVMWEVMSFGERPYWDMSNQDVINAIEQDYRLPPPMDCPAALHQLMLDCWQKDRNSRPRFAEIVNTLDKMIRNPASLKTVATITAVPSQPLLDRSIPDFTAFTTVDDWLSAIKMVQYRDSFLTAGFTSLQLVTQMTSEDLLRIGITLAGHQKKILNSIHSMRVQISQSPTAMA
Put plainly: Induction of stabilization of recombinant EPHB1 (unknown origin) assessed as change in melting temperature by differential scanning fluorimetry assay.

A further assay has as its target Ephrin type-A receptor 2 (Homo sapiens, UniProt P29317).
For assay [5], the target named is Ephrin type-A receptor 7 (Homo sapiens) (UniProt Q15375). Put plainly: Induction of stabilization of recombinant EPHA7 (unknown origin) assessed as change in melting temperature by differential scanning fluorimetry assay.
Chain of Ephrin type-A receptor 7 (Homo sapiens) (Q15375 28-998 limits assumed): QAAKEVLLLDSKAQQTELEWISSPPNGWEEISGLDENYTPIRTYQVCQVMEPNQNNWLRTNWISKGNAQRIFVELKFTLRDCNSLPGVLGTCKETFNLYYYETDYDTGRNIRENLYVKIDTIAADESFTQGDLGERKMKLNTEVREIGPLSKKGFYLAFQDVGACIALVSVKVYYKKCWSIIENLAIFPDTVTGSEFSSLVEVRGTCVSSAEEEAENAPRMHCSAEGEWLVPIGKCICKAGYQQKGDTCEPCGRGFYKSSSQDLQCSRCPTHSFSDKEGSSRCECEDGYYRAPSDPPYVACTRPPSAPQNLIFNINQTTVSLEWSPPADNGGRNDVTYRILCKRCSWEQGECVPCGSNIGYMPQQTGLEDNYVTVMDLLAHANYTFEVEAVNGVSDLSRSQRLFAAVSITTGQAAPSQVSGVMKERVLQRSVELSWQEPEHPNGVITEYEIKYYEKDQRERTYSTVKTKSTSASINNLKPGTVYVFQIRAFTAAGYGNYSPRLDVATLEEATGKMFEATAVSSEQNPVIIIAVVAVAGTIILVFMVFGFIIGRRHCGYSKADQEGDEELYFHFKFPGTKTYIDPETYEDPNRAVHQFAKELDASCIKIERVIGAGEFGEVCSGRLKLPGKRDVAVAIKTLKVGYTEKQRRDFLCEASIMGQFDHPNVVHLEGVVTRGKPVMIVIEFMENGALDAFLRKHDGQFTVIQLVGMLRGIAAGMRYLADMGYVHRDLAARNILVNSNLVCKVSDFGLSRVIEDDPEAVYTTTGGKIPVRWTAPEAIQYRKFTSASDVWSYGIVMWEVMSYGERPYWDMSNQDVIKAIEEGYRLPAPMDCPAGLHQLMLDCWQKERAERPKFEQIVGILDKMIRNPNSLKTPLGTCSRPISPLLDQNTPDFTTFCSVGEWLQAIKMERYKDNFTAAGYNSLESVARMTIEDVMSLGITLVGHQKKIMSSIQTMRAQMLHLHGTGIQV
In assay [6] the target is Ephrin type-A receptor 5 (Homo sapiens) (UniProt P54756).
Description: Induction of stabilization of recombinant EPHA5 (unknown origin) assessed as change in melting temperature by differential scanning fluorimetry assay
In assay [7] the target is Vascular endothelial growth factor receptor 1 (Homo sapiens, UniProt P17948). Put plainly: Induction of stabilization of recombinant FLT1 (unknown origin) assessed as change in melting temperature by differential scanning fluorimetry assay.
Chain of Vascular endothelial growth factor receptor 1 (P17948 whole entry): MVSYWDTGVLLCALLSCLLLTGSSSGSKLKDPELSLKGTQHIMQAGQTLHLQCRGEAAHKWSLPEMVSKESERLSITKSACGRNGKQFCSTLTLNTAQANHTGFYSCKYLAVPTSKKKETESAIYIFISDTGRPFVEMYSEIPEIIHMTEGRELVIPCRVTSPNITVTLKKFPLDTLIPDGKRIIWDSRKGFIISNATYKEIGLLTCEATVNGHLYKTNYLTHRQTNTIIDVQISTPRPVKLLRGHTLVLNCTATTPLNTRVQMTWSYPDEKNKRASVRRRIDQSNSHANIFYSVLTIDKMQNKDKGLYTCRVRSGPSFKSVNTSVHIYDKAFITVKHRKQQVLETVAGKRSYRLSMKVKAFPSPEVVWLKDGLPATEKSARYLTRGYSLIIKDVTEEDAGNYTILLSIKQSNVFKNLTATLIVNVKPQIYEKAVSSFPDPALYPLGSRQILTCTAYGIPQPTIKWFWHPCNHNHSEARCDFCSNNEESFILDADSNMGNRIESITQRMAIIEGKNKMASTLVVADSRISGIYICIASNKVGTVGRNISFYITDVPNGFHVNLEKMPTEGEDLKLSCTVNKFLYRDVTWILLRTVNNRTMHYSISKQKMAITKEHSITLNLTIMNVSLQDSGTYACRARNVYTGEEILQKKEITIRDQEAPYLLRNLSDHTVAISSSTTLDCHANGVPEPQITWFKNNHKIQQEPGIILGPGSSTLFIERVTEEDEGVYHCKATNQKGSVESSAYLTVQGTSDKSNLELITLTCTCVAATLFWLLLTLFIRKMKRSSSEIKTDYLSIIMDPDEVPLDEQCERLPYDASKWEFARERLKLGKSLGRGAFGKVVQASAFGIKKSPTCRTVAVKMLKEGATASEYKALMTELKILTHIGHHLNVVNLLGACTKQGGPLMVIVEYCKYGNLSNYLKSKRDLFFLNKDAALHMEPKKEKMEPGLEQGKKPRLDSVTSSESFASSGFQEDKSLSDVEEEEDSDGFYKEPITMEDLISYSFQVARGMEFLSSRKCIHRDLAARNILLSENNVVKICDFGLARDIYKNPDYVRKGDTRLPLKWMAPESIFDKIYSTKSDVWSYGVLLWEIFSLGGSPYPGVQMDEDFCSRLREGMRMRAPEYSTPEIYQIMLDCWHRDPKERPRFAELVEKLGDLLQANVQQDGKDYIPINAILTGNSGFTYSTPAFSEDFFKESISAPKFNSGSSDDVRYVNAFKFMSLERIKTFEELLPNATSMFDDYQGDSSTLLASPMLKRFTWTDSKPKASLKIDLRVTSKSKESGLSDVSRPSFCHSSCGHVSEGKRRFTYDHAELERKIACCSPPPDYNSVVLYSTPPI

Usually CC50 stands for the concentration at which the toxic effect on the cells reaches its halfway point. Usually EC50 stands for the concentration needed to bring the measured effect to its halfway point. As a reminder, the EC90 is the concentration at which the effect reaches the 90% level.

Chain of Ephrin type-A receptor 2 (P29317 whole entry): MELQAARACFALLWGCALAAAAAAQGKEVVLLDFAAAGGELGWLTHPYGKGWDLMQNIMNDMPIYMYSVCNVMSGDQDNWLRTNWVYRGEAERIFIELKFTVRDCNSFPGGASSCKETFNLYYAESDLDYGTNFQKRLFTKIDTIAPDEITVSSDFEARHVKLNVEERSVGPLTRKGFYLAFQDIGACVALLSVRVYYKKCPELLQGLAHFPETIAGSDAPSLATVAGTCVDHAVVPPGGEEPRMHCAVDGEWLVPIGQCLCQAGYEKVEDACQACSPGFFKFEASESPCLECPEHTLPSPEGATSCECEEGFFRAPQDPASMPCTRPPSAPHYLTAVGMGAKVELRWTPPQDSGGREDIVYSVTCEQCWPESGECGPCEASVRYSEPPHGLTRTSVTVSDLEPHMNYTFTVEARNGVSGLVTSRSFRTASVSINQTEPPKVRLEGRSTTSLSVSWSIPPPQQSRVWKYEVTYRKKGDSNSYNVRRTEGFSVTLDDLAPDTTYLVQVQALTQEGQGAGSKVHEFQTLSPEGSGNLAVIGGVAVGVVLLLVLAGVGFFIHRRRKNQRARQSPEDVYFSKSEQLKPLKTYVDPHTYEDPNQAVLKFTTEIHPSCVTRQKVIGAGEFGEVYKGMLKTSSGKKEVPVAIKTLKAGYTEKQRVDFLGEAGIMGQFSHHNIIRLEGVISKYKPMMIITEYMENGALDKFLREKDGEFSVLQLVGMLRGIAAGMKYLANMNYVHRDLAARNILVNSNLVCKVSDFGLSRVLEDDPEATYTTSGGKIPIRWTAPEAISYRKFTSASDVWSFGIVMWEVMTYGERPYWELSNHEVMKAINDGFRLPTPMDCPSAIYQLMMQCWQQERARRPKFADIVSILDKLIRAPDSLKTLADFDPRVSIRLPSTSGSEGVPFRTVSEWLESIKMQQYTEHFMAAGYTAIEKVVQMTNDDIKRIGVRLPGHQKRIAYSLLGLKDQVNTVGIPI
Description for Ephrin type-A receptor 2: Induction of stabilization of recombinant EPHA2 (D596 to G900 residues) (unknown origin) expressed in Escherichia coli rosetta BL21(D3)-R3-pRARE2 competent cells assessed as change in melting temperature by differential scanning fluorimetry assay

On to `O=S1(=O)NCCCNc2nc(ncc2-c2ccc(Cl)c(Cl)c2)Nc2cccc1c2`, for which the deltaTm on Ephrin type-A receptor 4 is 2.9 K; in assay [1], 3.2 K; in assay [2], 2.8 K; in assay [3], 3.9 K; in [4], 2.2 K; on Ephrin type-A receptor 2, 6.2 K. Further, the deltaTm in assay [5] came out at 2.4 K; in [6], 3.4 K; in [7], 3.6 K. Further, the CC50 in the assay with Huh-7 is above 10 µM. In the assay on dengue virus type 2, the EC50 was 3.7 µM. Also, the EC90 with dengue virus type 2 stood at 9 µM.
Regarding `COc1c(F)ccc(-c2cnc3nc2NCCCNS(=O)(=O)c2cccc(c2)N3)c1F`, the deltaTm at Ephrin type-A receptor 4 worked out at 4.9 K; in assay [1] it was 4.8 K; in [2] it was 5.2 K; in assay [3] it was 5.8 K; in assay [4], 5.6 K; at Ephrin type-A receptor 2, 8.8 K. Besides, the deltaTm in assay [5] was -2.5 K; in assay [6], 5.4 K; in assay [7], 8.8 K. For the same compound, the CC50 in the assay with Huh-7 worked out at 2.9 µM. In the assay with dengue virus type 2, the EC50 is 1.8 µM. Besides, the EC90 in the assay on dengue virus type 2 came to 2.9 µM.
Turning to `COc1cc(-c2cnc3nc2NCCCNS(=O)(=O)c2cccc(c2)N3)c(F)cc1F`, the deltaTm on Ephrin type-A receptor 4 was determined as 2.8 K; in assay [1], 3.9 K; in [2], 2.7 K; in [3] it was 3.6 K; in assay [4], 3.3 K; at Ephrin type-A receptor 2, 6.9 K. The deltaTm in assay [5] came out at 0.4 K; in assay [6], 5 K; in [7] it was 3.4 K. For the same compound, the CC50 in the assay with Huh-7 was above 10 µM. Further, the EC50 with dengue virus type 2 was above 10 µM. Further, in the assay on dengue virus type 2, the EC90 was above 10 µM.
Regarding `COc1cc(-c2cnc3nc2NCCCNS(=O)(=O)c2cc(ccc2O)N3)ccc1F`, the deltaTm came to 3.3 K at Ephrin type-A receptor 4; 4.2 K in assay [1]; 1.9 K in [2]; 3 K in assay [3]; 3.5 K in assay [4]; 7.9 K on Ephrin type-A receptor 2. Further, the deltaTm turned out to be 0.3 K in assay [5], 4.7 K in assay [6] and 3 K in assay [7]. Besides, the CC50 in the assay with Huh-7 is above 10 µM. The EC50 in the assay on dengue virus type 2 was above 10 µM. Further, in the assay with dengue virus type 2, the EC90 was above 10 µM.
